In US7501281B2, “Compositions, methods and kits related to thrombin, Notch signaling and stamatogenesis and growth of stem cells” (Maine Medical Center Research Institute, priority 2003, dated 2009):
Marks after values point to notes of the source that are not given here.

Columns and labels:
[1] = test system: clonal cortical neurospheres; experiment: Cortical neurosphere model, secondary sphere formation; assay type: cell-based, murine; settings: for F/SP × 10^2 / Cells/Founder (F) / Secondary Spheres (SP): day 10; for Cells/Founder (F): mean±SD; for Secondary Spheres (SP): from dissociation of founder spheres, mean±SD of three experiments; for secondary spheres per primary sphere: primary spheres grown 2 weeks with the factor, secondary spheres in standard media
From the text: The E14 prefrontal ventricular zone was dissected and plated at a clonal neurosphere-forming density in the presence of either sJ1, sDl1, thrombin, TRAP or no supplementation. After 2 weeks, the clones were dissociated to single cells and secondary spheres were generated using standard media with no supplementation (Reynolds et al., 1992, J. Neurosci. 12:4565-4574).
Secondary spheres (SP) are formed from the dissociation of founder (F) spheres. The data presented are the number of colonies (mean±SD of three experiments). (*=p≦0.05).

[2] = test system: neurosphere cultures and p75+/P0- neural crest stem cells; experiment: RT-PCR of self-renewal transcripts Nestin, Nucleostemin and Bmi1; assay type: cell-based, murine; settings: for relative expression of Nestin, Nucleostemin and Bmi1 transcripts: primary and secondary neurosphere cultures
Method: Clonal NCSC neurospheres were generated and allowed to expand for 10 days in either 7.5 nM sJ1, 5 nM sD1, 5 μg/ml α-thrombin, and no additive (control) (FIG. 13A) as described elsewhere herein. Clonal NCSC neurospheres were generated in a feeder-layer coculture system using a monolayer of stable full-length (FL) Jagged1 NIH 3T3 cell transfectants or insert-less NIH 3T3 cell transfectants and treated with either 5 μg/ml thrombin or without further supplementation (control) (FIG. 13B). The results are presented as representative photomicrographs of the spheres obtained under each condition after 14 days of treatment. […] Clonal neurospheres were generated in the presence of either 5 μg/ml α-thrombin, 7.5 nM sJ1, 5 nM sDl1 or no supplement (control) and expanded for 14 days. RT-PCR was used to determine the steady-state mRNA level for three markers of neural stem cells (Nestin, Nucleostemin and Bmi1). An increase in the expression of all three transcripts compared to control was observed. […] Approximately 5×10^2 NCSC were plated in Morrison media supplemented with either 7.5 nM sJ1, 5 μg/ml α-thrombin, 5 nM sD1, 2 ng/ml BMP2 or no additive (control) for 48 hours. The results are presented as the percent of control (mean±standard deviation of three RT-PCR experiments) performed in triplicate. No change in the steady-state level mRNA levels of the three markers relative to actin was observed.
RT-PCR was performed with 1 μg RNA using the Platinum Taq One Step RT-PCR kit (Invitrogen) as follows: RT (30 minutes at 50° C.), PCR (40 cycles at 94° C. for 15 seconds, at 58° C. for 30 seconds and 72° C. for 1 minute). All amplified cDNA was visualized with ethidium bromide followed by 1.5% agarose gel electrophoresis. RT-PCR analysis of fgf and gapdh was performed as previously described elsewhere herein. […] Each reaction product was measured as a ratio relative to the amplification product of actin and samples were run in triplicate. […]

NCSC populations = experiment: Clonogenic differentiation and serial subcloning assays of NCSC clones (secondary NCSC); assay type: cell-based, murine; set-up: G / Sm / G + Sm: unit not given here; settings: for NCSC clones that did not express either gliogenic or neurogenic differentiation markers: after 7 days of expansion; for clones that were trifatent (neurons, glial, and smooth muscle progeny): secondary clones established from treated founder clones
Method: Clonogenic assays were performed as described (Stemple et al., 1992, Cell 71:973-985). Briefly, populations of murine NCSC were plated at a clonal density and maintained for a maximum of 14 days in Morrison media supplemented with 15% chick embryo extract (Morrison et al., 1999, Cell 96:737-749). The resulting clones were fixed in an acetic acid:ethanol solution (2:1) and stained with antibodies against peripherin (Chemicon) to detect neurons, smooth muscle actin (Sigma) to detect myofibroblasts, and GFAP (Chemicon) to detect Schwann cells. Clones were scored based on the appearance of just one phenotypic representative. The number and percentage of clones containing neurons only (N), Schwann cells only (S), myofibroblasts only (M), N+S, N+M, N+S+M, and S+M were scored at day 14 unless otherwise stated. The production of each representative phenotype in each individual clone was also scored to complement the clonal population assay.
In order to generate secondary NCSC populations, founder clones originating from differentiating E10 clones at distinct time points during NCSC differentiation (days 2 through 18) were treated with trypsin and replated at a cell clonal density using methods previously described (Kubu et al., 2000, Genomics 70:150-152). The resulting cells were subjected to immunofluorescence microscopy using both p75^+ and P0^− antibodies (Kubu et al., 2000, Genomics 70:150-152) and the p75^+/P0^− cells identified as putative stem cells. All non-p75^+/P0^− cells were removed from the dish with a tungsten needle. The cultures of secondary NCSC clones were subjected to the clonogenic assay as described above.
Specifically, clonogenic differentiation and serial subcloning assays were performed using NCSC clones incubated with either thrombin, sDl1, sJ1 or TRAP.
Briefly, presented are the number of colonies with the resulting differentiation profiles (mean±SD of three experiments resulting from individual NCSC isolations).
A genetic approach was used to determine whether thrombin, TRAP, or sJ1 were able to promote cell cycle progression in the NCSC population. Thus, a dnFGFR1 construct was expressed in the NSC cells and the clonogenic differentiation assay conducted in the presence of either sJ1, thrombin or no additional supplement.

[3] = test system: FGF1.A transcript in murine NCSC; experiment: RT-PCR analysis of FGF1.A mRNA expression in NCSC; assay type: cell-based; settings: 48 hours; 7.5 nM sJ1, 5.0 nM sDl1, 10 μg/ml α-thrombin or 5 μg/ml TRAP
[4] = colonies from secondary NCSC, mean±SD
[5] = dnFGFR1-transduced NCSC, trifatent
[6] = glial-only colonies from secondary NCSC, mean±SD
[7] = secondary stem cells from NCSC founders after ten days of expansion, mean±SD
[8] = smooth muscle-only colonies from secondary NCSC, mean±SD
[9] = trifatent colonies from secondary NCSC, mean±SD

Molecule | F/SP × 10^2 [1] | Cells/Founder (F) [1] | Secondary Spheres (SP) [1] | secondary spheres per primary sphere [1] | relative expression of Nestin, Nucleostemin and Bmi1 transcripts [2] | NCSC clones that did not express either gliogenic or neurogenic differentiation markers (NCSC populations) | G + Sm (NCSC populations; [4]) | N + G (NCSC populations; [4]) | N + Sm (NCSC populations; [4]) | G (NCSC populations; dnFGFR1-transduced NCSC) | G + Sm (NCSC populations; dnFGFR1-transduced NCSC) | N + G (NCSC populations; dnFGFR1-transduced NCSC) | N + Sm (NCSC populations; dnFGFR1-transduced NCSC) | Secondary NSSC/Founder (NCSC populations; dnFGFR1-transduced NCSC) | G (NCSC populations; [6]) | clones that were trifatent (neurons, glial, and smooth muscle progeny) (NCSC populations) | Secondary NSSC/Founder (NCSC populations; [7]) | Sm (NCSC populations; [8]) | N + G + Sm (NCSC populations; [9]) | expression of the FGF1.A transcript [3] | other results
Thrombin | 13%* | 488 ± 166* | 64 ± 11 | 55±14 | elevated | 75±11% | 2.0 ± 2.1 | 3.93 ± 3.8 | 4.5 ± 2.1 | 1.7 ± 3.1 | 6.9 ± 8.3 | 9.8 ± 3.2 | 5.5 ± 1.5 | 13.5 ± 2.9 | 0 ± 0 | 86.8±2.1% | 36.8 ± 6.3 | 2.6 ± 1.01 | 86.8 ± 2.1 | induced | N (NCSC populations; dnFGFR1-transduced NCSC): 5.9 ± 1.7; Sm (NCSC populations; dnFGFR1-transduced NCSC): 24.13 ± 1.4; N + G + Sm (NCSC populations; [5]): 46.0 ± 13.6
sJ1: Soluble Jagged1, amino acid residues from about 1 to 1067 (SEQ ID NO:3) of full-length Jagged1 | 10%* | 527 ± 170* | 55 ± 14 | 64±11 | elevated | 84±7% | 3.4 ± 2.8 | 7.0 ± 5.6 | 1.5 ± 1.7 | 9.3 ± 2.7 | 10.3 ± 6.3 | 7.2 ± 4.5 | 6.2 ± 7.0 | 13.5 ± 4.7 | 7.8 ± 1.4 | 74.1±9% | 26.2 ± 6 | 6.2 ± 1.0 | 74.1 ± 9.1 | induced | Sm (NCSC populations; dnFGFR1-transduced NCSC): 16.4 ± 8.5; N + G + Sm (NCSC populations; [5]): 48.0 ± 11.8
sDl1: soluble non-transmembrane form of the Notch ligand Delta1 (protein, left off: small tags and cut ends, soluble non-transmembrane form of the Notch ligand Delta1) QVWSSGVFELKLQEFVNKKGLLGNRNCCRGGAGPPPCACRTFFRVCLKHYQASVSPEPPCTYGSAVTPVLGVDSFSLPDGGGADSAFSNPIRFPFGFTWPGTFSLIIEALHTDSPDDLATENPERLISRLATQRHLTVGEEWSQDLHSSGRTDLKYSYRFVCDEHYYGEGCSVFCRPRDDAFGHFTCGERGEKVCNPGWKGPYCTEPICLPGCDEQHGFCDKPGECKCRVGWQGRYCDECIRYPGCLHGTCQQPWQCNCQEGWGGLFCNQDLNYCTHHKPCKNGATCTNTGQGSYTCSCRPGYTGATCELGIDECDPSPCKNGGSCTDLENSYSCTCPPGFYGKICELSAMTCADGPCFNGGRCSDSPDGGYSCRCPVGYSGFNCEKKIDYCSSSPCSNGAKCVDLGDAYLCRCQAGFSGRHCDDNVDDCASSPCANGGTCRDGVNDFSCTCPPGYTGRNCSAPVSRCEHAPCHNGATCHERGHRYVCECARGYGGPNCQFLLPELPPGPAVVDLTEKLEGQGGPFPW | 2.0% | 150 ± 69* | 3 ± 3 | 3±3 |  | 0±0% | 3.4 ± 2.8 | 0 | 0 |  |  |  |  |  | 72 ± 6.4 | 0.5% | 0.6 ± 1.0 | 20.5 ± 6.5 | 0.5 ± 0.7 | did not influence | levels of Nestin, Nucleostemin and Bmi1 transcripts ([2]; p75+/P0- neural crest stem cells, 24 and 48 hours): sharply decreased
